The source made the active and inactive calls. The calls are words filed in the database; no cut-off is given here.
What was measured:
[1] = target: T1, Nicotinamide N-methyltransferase (Homo sapiens) (UniProt P40261)
T1 sequence (whole entry): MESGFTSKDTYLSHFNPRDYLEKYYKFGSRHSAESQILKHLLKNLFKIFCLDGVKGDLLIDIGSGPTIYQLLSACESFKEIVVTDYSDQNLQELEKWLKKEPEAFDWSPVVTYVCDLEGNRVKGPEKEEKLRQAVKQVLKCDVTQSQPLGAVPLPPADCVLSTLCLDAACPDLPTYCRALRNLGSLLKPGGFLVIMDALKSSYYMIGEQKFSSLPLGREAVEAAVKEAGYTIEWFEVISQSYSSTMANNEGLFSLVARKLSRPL
Description: Binding affinity to human NNMT (1 to 264 residues) expressed in Escherichia coli BL21 (DE3) assessed as change in enthalpy by isothermal titration calorimetric method

[2] = target: N-lysine methyltransferase SMYD2 (Homo sapiens, UniProt Q9NRG4); assay: Inhibition of SMYD2 (unknown origin) using [3H]-SAM as co-factor by scintillation proximity assay
Sequence of N-lysine methyltransferase SMYD2 (Q9NRG4 whole entry, the tested form may be a part): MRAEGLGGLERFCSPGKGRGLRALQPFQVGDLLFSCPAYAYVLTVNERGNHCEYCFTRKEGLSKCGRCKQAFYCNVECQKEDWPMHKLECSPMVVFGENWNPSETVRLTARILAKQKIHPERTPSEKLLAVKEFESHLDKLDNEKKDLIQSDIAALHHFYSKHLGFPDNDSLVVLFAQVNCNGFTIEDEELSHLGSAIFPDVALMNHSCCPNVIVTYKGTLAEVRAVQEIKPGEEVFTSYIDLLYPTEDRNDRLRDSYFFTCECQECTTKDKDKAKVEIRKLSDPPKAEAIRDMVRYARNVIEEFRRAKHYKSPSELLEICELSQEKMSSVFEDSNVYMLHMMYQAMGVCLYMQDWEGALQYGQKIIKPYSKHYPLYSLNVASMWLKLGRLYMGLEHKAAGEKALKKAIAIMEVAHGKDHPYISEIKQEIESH

[3] = target: T2, Nicotinamide N-methyltransferase (Homo sapiens, UniProt P40261); assay: Inhibition of human NNMT (1 to 264 residues) expressed in Escherichia coli BL21 (DE3) using nicotinamide/SAM as substrate/co-factor measured for 20 mins by SAHH-coupled fluorescent assay
T2 sequence (P40261 whole entry): T1 sequence (whole entry)

[4] = target: T3, Protein arginine N-methyltransferase 7 (Homo sapiens, UniProt Q9NVM4); assay: Inhibition of PRMT7 (unknown origin) using [3H]-SAM as co-factor by scintillation proximity assay
T3 sequence (Q9NVM4 whole entry): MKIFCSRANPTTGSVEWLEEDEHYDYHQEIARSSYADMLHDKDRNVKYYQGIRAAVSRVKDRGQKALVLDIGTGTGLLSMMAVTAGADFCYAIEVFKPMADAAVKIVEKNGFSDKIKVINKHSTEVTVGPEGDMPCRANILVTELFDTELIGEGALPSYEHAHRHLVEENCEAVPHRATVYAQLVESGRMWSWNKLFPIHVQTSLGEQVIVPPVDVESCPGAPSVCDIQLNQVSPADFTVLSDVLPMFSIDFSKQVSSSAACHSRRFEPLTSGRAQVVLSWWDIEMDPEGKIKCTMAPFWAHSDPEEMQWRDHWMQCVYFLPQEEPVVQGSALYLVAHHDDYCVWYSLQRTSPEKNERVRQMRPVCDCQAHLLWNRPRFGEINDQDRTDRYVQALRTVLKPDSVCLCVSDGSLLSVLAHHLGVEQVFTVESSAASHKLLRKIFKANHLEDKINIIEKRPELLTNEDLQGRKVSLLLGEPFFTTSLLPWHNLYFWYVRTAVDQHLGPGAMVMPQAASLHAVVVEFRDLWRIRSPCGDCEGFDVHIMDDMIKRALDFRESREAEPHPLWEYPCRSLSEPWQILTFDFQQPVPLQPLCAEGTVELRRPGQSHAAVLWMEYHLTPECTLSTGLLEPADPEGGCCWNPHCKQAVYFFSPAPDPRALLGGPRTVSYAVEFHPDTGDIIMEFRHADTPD

[5] = target: T1, Nicotinamide N-methyltransferase (Homo sapiens); assay: Competitive inhibition of human NNMT (1 to 264 residues) expressed in Escherichia coli BL21 (DE3) at 1 to 250 uM measured for 20 mins in presence of varying concentration of SAM by Lineweaver-Burk plot analysis
[6] = target: T1, Nicotinamide N-methyltransferase (Homo sapiens); assay: Nonompetitive inhibition of human NNMT (1 to 264 residues) expressed in Escherichia coli BL21 (DE3) at 1 to 250 uM measured for 20 mins in presence of varying concentration of nicotinamide by Lineweaver-Burk plot analysis
[7] = target: T4, RNA 5'-monophosphate methyltransferase (Homo sapiens, UniProt Q7Z5W3); assay: Inhibition of BCDIN3D (unknown origin) using [3H]-SAM as co-factor by scintillation proximity assay
T4 sequence (Q7Z5W3 whole entry): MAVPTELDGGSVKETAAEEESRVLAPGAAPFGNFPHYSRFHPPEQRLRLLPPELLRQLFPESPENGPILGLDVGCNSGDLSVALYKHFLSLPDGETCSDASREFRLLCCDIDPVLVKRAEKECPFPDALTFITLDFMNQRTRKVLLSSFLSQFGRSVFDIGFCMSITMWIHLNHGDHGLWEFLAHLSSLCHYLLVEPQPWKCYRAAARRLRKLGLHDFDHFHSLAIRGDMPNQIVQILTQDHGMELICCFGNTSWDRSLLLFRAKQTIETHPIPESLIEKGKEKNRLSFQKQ

[8] = target: T2, Nicotinamide N-methyltransferase; assay: Binding affinity to human NNMT (1 to 264 residues) expressed in Escherichia coli BL21 (DE3) by isothermal titration calorimetric method
[9] = target: T1, Nicotinamide N-methyltransferase (Homo sapiens); remark: listed apart in the source
Description: Binding affinity to human NNMT (1 to 264 residues) expressed in Escherichia coli BL21 (DE3) assessed as change in entropy by isothermal titration calorimetric method

[10] = target: Histone-lysine N-methyltransferase, H3 lysine-79 specific (Homo sapiens, UniProt Q8TEK3); assay: Inhibition of DOT1L (unknown origin) after 1 hr by filter-based assay
Sequence of Histone-lysine N-methyltransferase, H3 lysine-79 specific (Q8TEK3 whole entry): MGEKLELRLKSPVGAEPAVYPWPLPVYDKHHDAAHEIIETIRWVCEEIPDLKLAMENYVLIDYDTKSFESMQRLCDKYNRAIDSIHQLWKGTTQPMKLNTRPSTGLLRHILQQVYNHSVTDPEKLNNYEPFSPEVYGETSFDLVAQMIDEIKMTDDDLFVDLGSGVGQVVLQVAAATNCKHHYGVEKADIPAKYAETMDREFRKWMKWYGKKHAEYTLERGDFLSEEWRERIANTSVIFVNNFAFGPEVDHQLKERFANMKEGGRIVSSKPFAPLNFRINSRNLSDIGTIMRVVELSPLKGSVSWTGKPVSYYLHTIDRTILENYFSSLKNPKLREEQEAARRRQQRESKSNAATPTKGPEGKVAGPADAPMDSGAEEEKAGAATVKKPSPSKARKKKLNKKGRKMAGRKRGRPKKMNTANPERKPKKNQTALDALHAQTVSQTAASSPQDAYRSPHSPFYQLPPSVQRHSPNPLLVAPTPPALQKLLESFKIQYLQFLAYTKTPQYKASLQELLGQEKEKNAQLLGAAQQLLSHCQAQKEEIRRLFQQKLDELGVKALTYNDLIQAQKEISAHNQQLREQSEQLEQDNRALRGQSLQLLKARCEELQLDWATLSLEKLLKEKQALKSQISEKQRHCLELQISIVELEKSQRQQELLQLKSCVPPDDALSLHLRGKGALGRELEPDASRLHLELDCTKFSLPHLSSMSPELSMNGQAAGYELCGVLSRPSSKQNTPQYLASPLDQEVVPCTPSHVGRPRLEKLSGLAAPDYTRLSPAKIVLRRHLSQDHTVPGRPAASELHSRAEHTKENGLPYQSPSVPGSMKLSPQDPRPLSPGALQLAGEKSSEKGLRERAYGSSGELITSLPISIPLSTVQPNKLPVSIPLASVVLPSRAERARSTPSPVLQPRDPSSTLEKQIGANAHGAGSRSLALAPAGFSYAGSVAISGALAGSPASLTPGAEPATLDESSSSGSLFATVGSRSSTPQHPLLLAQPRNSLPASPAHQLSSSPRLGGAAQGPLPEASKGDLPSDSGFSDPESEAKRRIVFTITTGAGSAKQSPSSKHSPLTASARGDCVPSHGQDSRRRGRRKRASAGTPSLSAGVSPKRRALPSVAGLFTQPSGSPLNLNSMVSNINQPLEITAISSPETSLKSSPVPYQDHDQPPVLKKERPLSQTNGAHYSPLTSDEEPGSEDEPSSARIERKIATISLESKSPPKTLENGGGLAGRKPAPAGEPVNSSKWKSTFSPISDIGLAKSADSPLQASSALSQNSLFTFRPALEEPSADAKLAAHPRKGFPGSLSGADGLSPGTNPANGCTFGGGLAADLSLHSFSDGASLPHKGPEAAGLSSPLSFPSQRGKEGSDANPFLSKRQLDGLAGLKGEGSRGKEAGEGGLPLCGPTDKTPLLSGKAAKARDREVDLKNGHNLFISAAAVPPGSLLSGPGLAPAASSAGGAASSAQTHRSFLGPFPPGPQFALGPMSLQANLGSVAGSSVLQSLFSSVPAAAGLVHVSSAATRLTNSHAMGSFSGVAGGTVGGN

IC50 [2] [µM] | IC50 [4] [µM] | inhibition [5] | inhibition [6] | IC50 [7] [µM] | IC50 [10] [µM] | SMILES | deltaH [1] [kcal/mol] | IC50 [3] [µM] | Kd [8] [µM] | deltaS [9] [cal/mol/deg]
62 | 20 | Active | Active | 40 | 1.3 | NC(=O)c1cccc(CCN(CCC[C@H](N)C(=O)O)C[C@H]2O[C@@H](n3cnc4c(N)ncnc43)[C@H](O)[C@@H]2O)c1 | -4.6 | 14 | 2.7 | 10
 |  |  |  |  |  | NC(=O)c1cccc(CCN(CC[C@H](N)C(=O)O)C[C@H]2O[C@@H](n3cnc4c(N)ncnc43)[C@H](O)[C@@H]2O)c1 | -2.5 | 160 | 42.8 | 11.4

From ChEMBL document CHEMBL4024794 (J Med Chem, 2018)
